In US6369066B1, “Substituted 1,3-oxathiolanes with antiviral properties” (BioChem Pharma, Inc., priority 1990, dated 2002):
In brackets after ≈: the same amount, converted by molar mass. Where two headings read alike, the source gives them in different places.

Experiments:
Assay type in all cases: cell-based
[1] = tested on: HIV-1 IIIB; assay: IC50 in CBMCs with HIV-1 isolate IIIB
Experimental: (§1) In short, viruses (HTLV-IIIB) that had initially been grown on MT-4 cells were passaged onto phytohemaglutinin-prestimulated cord blood mononuclear cells (CBM). For subsequent analysis, samples of CBM (5×10^5 cells per mL) were pretreated with various concentrations of the different compounds for 4 h and were then inoculated with CBL-grown HIV-1 at a multiplicity of infection of 1.0 in the concentration of the compound used for the pretreatment. Fresh medium, including the appropriate concentration of the compound was added three times weekly, and fresh phytohemaglutinin-prestimulated CBM (5×10^5 cells per mL) were added at 2-day intervals. The calculation of IC50 was determined on the basis of RT levels in culture fluids as described in Gao et al., (1992), J. Virol. 66: 12-19.
(§2) Determination of IC50 (μM) in Different Mutated Isolates of HIV-1 in the Presence of Different Antiviral Compounds
(§3) The procedure is similar to the procedure used in the CBM assay, with the exception that constructed virus and construted mutated virus were used.

[2] = tested on: HIV-1 HXB2D; assay: IC50 in CBMCs with constructed virus HXB2D
Experimental: as §1, §2, §3
(§4) The constructed virus HXB2D-65 correspond to the ddC resistance mutation and the constructed virus HXB2D-184 correspond to the 3TC™ and FTC resistance mutation.

[3] = tested on: HIV-1 HXB2D-65 K→R (ddC resistance mutation); assay: IC50 in CBMCs with constructed mutated virus HXB2D-65
Experimental: as §1, §2, §3, §4

[4] = tested on: HIV-1 HXB2D-184 M→V (3TC™ and FTC resistance mutation); assay: IC50 in CBMCs with constructed mutated virus HXB2D-184
Experimental: as §1, §2, §3, §4

[5] = tested on: HIV-1 strain RF; assay: Formazan (MTT) assay on MT-4 cells, anti-HIV-1 antiviral activity; conditions: Human immunodeficiency virus 1, MT4, 168 h, MT-4 cells infected with HIV-1 strain RF, 7 days, read-out: IC50 (50% anti-viral dose, ID 50%)
Experimental: Formazan Assay on MT-4 and 3TC™-Resistant Cell Lines
(§5) Anti-HIV-1 antiviral activity was determined in MT-4 calls and MT-4 cells that have been made resistant to 3TC™. A suspension of cells (approximately 10^6 cells/ml) in RPMI 1640 growth medium was infected with HIV-1 strain RF at a M.O.I. of 10^−3 infectious units/cell. An uninfected cell suspension was prepared in parallel to evaluate drug-induced cytotoxicity. The two suspensions were incubated for 90 minutes at room temperature. Test compounds were serially diluted in 10-fold decrements from 100 μg/ml to 0.01 μg/ml (final concentrations in two 96 well microtitre plates. 20 μl of infected cell suspension were inoculated into each well of one of the plates (anti-viral), while 20 μl of uninfected cell suspension were added to each well of the second plate (cytotoxicity). The plates were then incubated for 7 days at 37° C. After incubation, 10 μl of 3-(4,5-dimethylthiazol-2-yl)-2,5-diphenyltetrazolium bromide (MTT) at 20 mg/ml was added to all wells and the plates incubated for a further 90 minutes at 37° C.
150 μl of 10% (v/v) alcoholic Triton X-100 was then added and the cells resuspended. After 15 minutes at room temperature, the plates were analyzed in a Multiskan MC reader at 405 nm. Conversion of yellow MMT to its formazan derivative is maximum in uninfected cells, and absent in untreated infected cells. The optical density values for the cytotoxicity controls and the antiviral test wells were graphically plotted and the dose of compounds required to inhibit the conversion of MMT to 50% of the untreated uninfected controls was calculated. In this way, both the 50% cytotoxic dose (CD 50%) and the 50% anti-viral dose (ID 50%) can be calculated.

[6] = tested on: HIV-1 (HTLV-IIIB); assay: CBM assay, IC50 from RT levels in culture fluids; conditions: Human immunodeficiency virus 1
Experimental: Assays on cord blood mononuclear cells were done substantially as described in Gu et al., J. Virol. (1992), 66:7128-7135.
as §1

[7] = tested on: HTLV-IIIb; assay: HIV-1 acutely infected cell lines, p24 antigen levels; conditions: p24 antigen at day 6; for ID50 CEM: CEM cells infected with HTLV-IIIb; for ID50 H9: H9 cells infected with HTLV-IIIb; for ID50 Jurkat: Jurkat cells infected with HTLV-IIIb; for ID50 MT-4: MT-4 cells infected with HTLV-IIIb; for ID50 U937: U937 cells infected with HTLV-IIIb
Experimental: Determination of IC50 ([…]) in HIV-1 Acutely Infected Cell Lines in the Presence of Differet Antiviral Compounds
Various cell lines were infected with HTLV-IIIb (TCID50=200) and then cultured with various concentrations of drug. IC50 was determined by measuring p24 antigen levels in the supernatant of cultures at day 6 of infection.

[8] = tested on: CBMCs; assay: Cell culture inhibitory dose (CCID50) in CBMCs; conditions: cell counting, trypan blue exclusion, 7 days post drug treatment
Experimental: (§6) Evaluation of Cell Culture Inhibitory Dose (CCID50)
(§7) Cell growth was determined by cell counting and viability by trypan blue exclusion 7 days post drug treatment. CCID50 is expressed as the drug concentration which inhibits 50% of cell growth.

[9] = tested on: MT-4; assay: Cell culture inhibitory dose (CCID50) in MT-4; conditions: cell counting, trypan blue exclusion, 7 days post drug treatment
Experimental: as §6, §7

[10] = tested on: U937; assay: Cell culture inhibitory dose (CCID50) in U937; conditions: cell counting, trypan blue exclusion, 7 days post drug treatment
Experimental: as §6, §7

[11] = tested on: Jurkat; assay: Cell culture inhibitory dose (CCID50) in Jurkat; conditions: cell counting, trypan blue exclusion, 7 days post drug treatment
Experimental: as §6, §7

[12] = tested on: H9; assay: Cell culture inhibitory dose (CCID50) in H9; conditions: cell counting, trypan blue exclusion, 7 days post drug treatment
Experimental: as §6, §7

[13] = tested on: CEM; assay: Cell culture inhibitory dose (CCID50) in CEM; conditions: cell counting, trypan blue exclusion, 7 days post drug treatment
Experimental: as §6, §7

[14] = tested on: MT-4 cells; assay: Formazan (MTT) assay, drug-induced cytotoxicity in uninfected MT-4 cells; conditions: human, 7 days
Experimental: as §5, with “A suspension of cells (approximately 10^6 cells/ml) in RPMI 1640 growth medium was infected with HIV-1 strain RF at a M.O.I. of 10^−3 infectious units/cell.” left out
150 μl of 10% (v/v) alcoholic Triton X-100 was then added and the cells resuspended. After 15 minutes at room temperature, the plates were analyzed in a Multiskan MC reader at 405 nm. […] The optical density values for the cytotoxicity controls and the antiviral test wells were graphically plotted and the dose of compounds required to inhibit the conversion of MMT to 50% of the untreated uninfected controls was calculated.

[15] = tested on: cord blood mononuclear cells (CBM); assay: Cytotoxicity (CD50) reported with CBM assay
Experimental: Assays on cord blood mononuclear cells were done substantially as described in Gu et al., J. Virol.
as §1, with “The calculation of IC50 was determined on the basis of RT levels in culture fluids as described in Gao et al., (1992), J. Virol.” left out

[16] = tested on: human hepatitis B virus; assay: Inhibition of human hepatitis B virus in 2.2.15 cells, extracellular HBV DNA; conditions: 10 day treatment
Experimental: Inhibition of Human Hepatitis B Virus.
(§8) The method used for this test is described in detail in Korba et al., Antiviral research 15, 217-228 (1992) which is shortly described as follows: Hep G2 cells transfected with human hepatitis B virus genomic DNA (2.2.15 cells) were grown and maintained in RPMI-1640 culture medium containing %5 foetal bovine serum, 2 mM glutamine and 50 μg/ml gentamicin sulphate, and checked routinely for G418 resistance. Cultures of 2.2.15 cells were grown to confluence in 24 well tissue culture plates and maintained for 2 to 3 days in that condition prior to drug treatment.
Drugs were dissolved in sterile water or sterile 50% DMSO in water at concentrations 100-fold higher than the higher test concentration. These solutions were diluted as needed in culture medium.
The culture medium on the confluent cells was changed 24 hours prior to exposure to test compounds. During the 10 day treatment, the culture medium was changed daily. After 10 days of the treatment, the culture medium was collected and frozen at −70° C. for HBV DNA analysis. […]
A purified 3.2 kb EcoR1 HBV DNA fragment was labeled with [^32p]dCTP by nick translation and used as a probe to detect HBV DNA on the dot-blot by DNA hybridization. After washing, the hybridized blot was dried and ^32p was quantified using an Ambis beta scanner.

[17] = tested on: 2.2.15 cells (Hep G2 cells transfected with human hepatitis B virus genomic DNA); assay: Cytotoxicity (CD50) reported with HBV assay; conditions: HBV table
Experimental: as §8

[18] = Human immunodeficiency virus 1, read-out: IC50 HXB2D
[19] = Human immunodeficiency virus 1, read-out: IC50 HXB2D-65 K→R
[20] = Human immunodeficiency virus 1, read-out: IC50 HXB2D-184 M→V

SMILES	IC50 [5] [µg/mL]	IC50 [6] [µg/mL]	IC50 ([1]; Human immunodeficiency virus 1) [nM]	IC50 [2, 18] [nM]	IC50 [3, 19] [nM]	IC50 [4, 20] [nM]	ID50 CEM [7] [µg/mL]	ID50 H9 [7] [µg/mL]	ID50 Jurkat [7] [µg/mL]	ID50 MT-4 [7] [µg/mL]	ID50 U937 [7] [µg/mL]	CCID50 CBMCs [8] [µM]	CCID50 MT-4 [9] [µM]	CCID50 U937 [10] [µM]	CCID50 Jurkat [11] [µM]	CCID50 H9 [12] [µM]	CCID50 CEM [13] [µM]	CD50 (50% cytotoxic dose) [14] [µg/mL]	CD50 [15] [µg/mL]	other results
Nc1ccn([C@@H]2CS[C@H](CO)O2)c(=O)n1 [3TC ™, reference compound]	–	–	–	–	–	–	–	–	–	–	–	–	–	–	–	–	–	–	–	IC50 [1]: 10 nM; IC50 ([2]; CBMCs, constructed virus HXB2D, read-out: IC50 HXB2D): 80 nM; IC50 ([3]; CBMCs, ddC resistance mutation, read-out: IC50 HXB2D-65 K→R): 125 nM; IC50 ([4]; CBMCs, 3TC™ and FTC resistance mutation, read-out: IC50 HXB2D-184 M→V): 42500 nM
Cc1cn([C@H]2C[C@H](N=[N+]=[N-])[C@@H](CO)O2)c(=O)[nH]c1=O [AZT, 3′-azido-3′-deoxythymidine, reference compound]	0.01 (≈ 0.0374 µM)	< 0.002	2	2	1	1	0.01 (≈ 0.0374 µM)	0.07 (≈ 0.262 µM)	0.01 (≈ 0.0374 µM)	0.005 (≈ 0.0187 µM)	0.04 (≈ 0.15 µM)	45	110	110	>500	200	500	–	–	–
Nc1ccn(C2COC(CO)S2)c(=O)n1 (stereo not drawn) [BCH-270, Cis- and Trans-2-hydroxymethyl-4-(cytosin-1′-yl)-1,3-oxathiolane]	4 (≈ 17.4 µM)	0.03 (≈ 0.131 µM)	–	–	–	–	–	–	–	–	–	–	–	–	–	–	–	>100	>23	ID50 (HBV) [16]: 7.5 µg/mL (≈ 32.7 µM); CD50 (HBV) [17]: >10 µg/mL
Nc1ccn([C@H]2CO[C@@H](CO)S2)c(=O)n1 [Compound #1, 2R-hydroxymethyl-4R-(cytosin-1′-yl)-1,3-oxathiolane]	13 (≈ 56.7 µM)	0.05 to 1.22 (≈ 0.218 to 5.32 µM)	220	1000	2500	530	0.2 (≈ 0.872 µM)	0.3 (≈ 1.31 µM)	3.0 (≈ 13.1 µM)	2.8 (≈ 12.2 µM)	0.4 (≈ 1.74 µM)	>500	>500	>500	450	>500	>500	>100	>23	–
